Laboratory results reported in publication PMC6501426 (Clinical Epigenetics, 2019).

Columns and labels:
[1] = system: methylated UCHL1 promoter EGFP reporter in HCT116 cells; test: UCHL1 promoter demethylation assay (EGFP expression, FACS) in HCT116; type: cell-based, human; settings: 5 μM, 5 days, HCT116 with methylated pUCHL1 vector
Method: Human colon cancer HCT116 (ATCC, VA, USA) cells were propagated in McCoy’s 5A medium (Euroclone, Milan, Italy) with 10% fetal bovine serum (FBS; Euroclone), 2 mM L-glutamine (Euroclone), and antibiotics (100 U/mL penicillin, 100 µg/mL streptomycin) (Euroclone). For the treatments with MC3353, 5-AZA, and DAC as positive controls, 2 × 10^4 cells were seeded in 6-well plates in triplicate. Cells were treated every 2 days, and the medium was changed. On day 5, cells were observed under a fluorescent microscope. The nuclei were counterstained with DAPI (10 μg/mL, Invitrogen, Tournai, Belgium).
Fluorescence of EGFP and DAPI in living cells was analyzed by Cytation™ 5 Cell Imaging Multi-Mode Reader (BioTeK, Milan, Italy).
Before the transfection, the pUMLIEP vector was linearized by with ClaI restriction enzyme (New England Biolabs, Milan, Italy) and then it was methylated by SssI-methylase (New England Biolabs, Milan, Italy) for 60 min. The methylated vector was transfected into HCT116 cells using Lipofectamine™2000 (Invitrogen, Monza, Italy) and Opti-MEM® (Gibco, Monza, Italy), and stably introduced clones were selected with puromycin (1.0 μg/mL, Sigma-Aldrich, Milan, Italy). The detailed protocol for the generation of cells highly responsive to DNA demethylating agents is described in [27].
Next, the demethylating activity of MC3353 was evaluated in cells transfected with luciferase and EGFP reporter genes driven by the UCHL1 promoter. The UCHL1 promoter is silenced by methylation in human colon cancer and can be demethylated by specific treatments, inducing expression of Metridia luciferase and EGFP reporter genes. In particular, the pUCHL1 vector, after methylation, was transfected into HCT116 colon cancer cells, and the stable clone was obtained by puromycin selection. Afterwards, cells were treated with 5-AZA (5 μM), with DAC (5 μM), or with MC3353 (0.1 μM) for 5 days. Such a low MC3353 dose was used because of its cytotoxicity at higher concentrations in long treatments.

HCT116 cells = test: MTT proliferation assay HCT116; type: cell-based, human; settings: 24 and 48 h; MC3353 from 0.5 μM after 48 h; DAC at 10 μM
Method: (§1) The MTT [3-(4,5-dimethylthiazol-2-yl)-2,5-diphenyltetrazolium bromide] (Sigma-Aldrich, Milan, Italy) assay was used to determine the proliferation of HCT116 clone and DKO HCT116 cells after treatment with MC3353, 5-AZA, and DAC. 5 × 10^4 cells/well for both cell lines were plated in 24-well plate and treated, in duplicate, with compounds at several concentrations for 24 and 48 h of induction. After treatments, MTT solution was added for 3 h at 0.5 mg/mL, the purple formazan crystals were dissolved in DMSO (Sigma-Aldrich, Milan, Italy), and the absorbance was read at a wavelength of 570 nm with reader TECAN M-200.

[2] = system: double DNMT knockout (DKO) HCT116 cells; test: MTT proliferation assay DKO HCT116; type: cell-based, human; settings: 24 and 48 h; MC3353 at 0.5 μM after 48 h; DAC, 5-AZA up to highest dose
Method: DKO HCT116 (ATCC, VA, USA) cells were propagated in Dulbecco’s modified Eagle medium (DMEM) (Euroclone, Milan, Italy) with 10% fetal bovine serum (FBS; Euroclone, Milan, Italy), 2 mM L-glutamine (Euroclone, Milan, Italy) and antibiotics (100 U/mL penicillin, 100 µg/mL streptomycin) (Euroclone, Milan, Italy).
as §1

[3] = system: E-cadherin mRNA in HCT116 cells; test: qPCR of E-cadherin in HCT116; type: cell-based, human; settings: MC3353 0.1 μM 24 h; 5-AZA, DAC every 2 days for 5 days at 0.1, 1, 5 μM
From the text: (§2) RNAs were extracted by ReliaPrep™ RNA Tissue Miniprep (Promega, Madison, WI, USA) and reverse transcribed with PrimeScript RT Master Mix (Takara, Kusatsu, Shiga, Japan). cDNAs were amplified by a qPCR reaction using GoTaq qPCR Master Mix (Promega) and analyzed with the oligonucleotide pairs specific for the target genes. Relative amounts, determined with the 2^(−ΔCt) method, were normalized with respect to the human housekeeping gene L32. The primers used are as follows: L32 (forward: 5′-[…]-3′, reverse: 5′-[…]-3′), E-cadherin (forward: 5′-[…]-3′, reverse: 5′-[…]-3′), and MMP2 (forward: 5′-[…]-3′, reverse: 5′-[…]-3′).
(§3) Prompted by these findings, we investigated the ability of MC3353 to modulate EMT pathway, using 5-AZA and DAC as reference drugs. […] The levels of mRNA transcripts of E-cadherin and matrix metalloproteinase-2 (MMP2) were determined. E-cadherin is involved in the maintenance of the epithelial identity and in the control of tumor invasiveness, whereas MMP2, through degradation of type IV collagen, the most abundant component of the basement membrane, controls an essential step for metastatic progression of most cancers as well as for induction of angiogenesis.

[4] = system: E-cadherin mRNA in PC-3 cells; test: qPCR of E-cadherin in PC-3; type: cell-based, human; settings: MC3353 24 h; 5-AZA, DAC 5 days, effect from 1 to 5 μM
From the text: as §2, §3

[5] = system: MMP2 mRNA in HCT116 cells; test: qPCR of MMP2 in HCT116; type: cell-based, human; settings: MC3353 0.1 and 1 μM 24 h; 5-AZA, DAC 5 days, also at 0.1 to 1 μM
From the text: as §2, §3

MMP2 mRNA in PC-3 cells = test: qPCR of MMP2 in PC-3; type: cell-based, human; settings: MC3353 0.1 and 1 μM 24 h; 5-AZA, DAC 5 days, also at 0.1 to 1 μM
From the text: as §2, §3

human DNMT1 = target: T1, human DNMT1 (Homo sapiens, UniProt P26358); test: DNMT1 assay (radiolabeled SAM, Flashplate); type: biochemical; settings: radioactivity assay; at least two independent experiments; read-out: EC50 ± SD, hDNMT1
T1 construct: His; made in house
Method: His-DNMT1 (182 kDa, human) was cloned, expressed, and purified as described by Lee et al.. The DNMT1 assay was performed according to Gros et al.. Briefly, the DNMT1 enzymatic assay is based on the use of radiolabeled SAM, and the methylation occurs in homogeneous phase in 384-well microplates. The reaction is performed with DNMT1 at the final concentration of 90 nM in a total volume of 10 μL including also the chemical compound to be tested at the desired concentration, 1.25 μM of SAM//[methyl-^3H] SAM (3TBq/mmol) mix in a ratio of 3:1 and 0.3 μM of biotinylated DNA duplex. DNMT1, as “maintenance” methyltransferase, requires hemimethylated DNA for the reaction. After 2 h incubation at 37 °C, 8 μL of the reaction’s solution is transferred into a streptavidin 96-well scintillant coated Flashplate^TM containing 190 μL of […] in 50 mM Tris-HCl (pH 7.4). The Flashplate^TM is then agitated at room temperature for 1 h and washed. The plate is read with TopCount (PerkinElmer, Villebon-sur-Yvette, France). The greater the DNMT1 inhibition, the lower will be the scintillation signal correlated to the incorporation of the tritiated methyl groups. In this assay, the negative and positive controls were defined as wells without enzyme and wells without any compound but just DMSO, respectively.

human C-terminal DNMT3A = target: T2, human C-terminal DNMT3A (Homo sapiens, UniProt Q9Y6K1); test: DNMT3A restriction-based fluorescence assay; type: biochemical; settings: fluorescent assay; C-terminal catalytic domain; read-out: EC50 ± SD, hDNMT3A
T2 construct: the C-terminal catalytic domain of human DNMT3A (hDNMT3A)
Method: DNMT3A enzyme inhibition was adapted from the restriction-based fluorescence assay protocol described in Ceccaldi et al.. Briefly, it is performed in a 384-well microplate in a total volume of 50 μL. An oligonucleotide labeled at the 5′ end with biotin is hybridized to his complementary strand labeled at the 3′ end with 6-carboxyfluorescein. The DNA duplex thus formed contains only one single CpG site overlapping with a restriction site of a methylation sensitive restriction enzyme. The duplex is transferred in the wells coated with avidin. Thus, the duplex is fixed to the plate. The methylation reaction is performed by adding human C-terminal DNMT3A at the final concentration of 4 ng/μL in a total volume of 50 μL in the presence of the chemical compound to be tested at the desired concentration and the cofactor SAM at the final concentration of 20 μM. After incubation (1 h at 37 °C), the plate is washed and the methylation sensitive restriction enzyme HpyCH4IV is added. After 1-h incubation at 37 °C, the plate is washed and the fluorescence measured with a PerkinElmer Envision Multilabel Plate Reader (PerkinElmer, Villebon-sur-Yvette, France). The data are expressed as a percentage of inhibition vs. log concentration (M). Data are normalized referring to the “restriction control” (wells coated with labeled duplex not treated nor exposed to DNMT3A, but only cleaved by HpyCH4IV) as the maximum of inhibition (100%) and to the “DMSO control” (wells coated with labeled duplex but treated just with 0.1% DMSO exposed to DNMT3A and then to HpyCH4IV) as the minimum of inhibition (0%; total methylation).

T2 sequence (Q9Y6K1 634-912 limits assumed): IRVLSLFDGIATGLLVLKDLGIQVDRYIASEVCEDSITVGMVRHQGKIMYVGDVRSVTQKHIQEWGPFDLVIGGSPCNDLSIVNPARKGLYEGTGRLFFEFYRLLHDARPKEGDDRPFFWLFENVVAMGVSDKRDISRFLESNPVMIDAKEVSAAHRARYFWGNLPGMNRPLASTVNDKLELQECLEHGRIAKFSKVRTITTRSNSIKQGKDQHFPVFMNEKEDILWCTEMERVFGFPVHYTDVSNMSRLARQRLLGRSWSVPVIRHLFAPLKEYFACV
T1 sequence (P26358 whole entry): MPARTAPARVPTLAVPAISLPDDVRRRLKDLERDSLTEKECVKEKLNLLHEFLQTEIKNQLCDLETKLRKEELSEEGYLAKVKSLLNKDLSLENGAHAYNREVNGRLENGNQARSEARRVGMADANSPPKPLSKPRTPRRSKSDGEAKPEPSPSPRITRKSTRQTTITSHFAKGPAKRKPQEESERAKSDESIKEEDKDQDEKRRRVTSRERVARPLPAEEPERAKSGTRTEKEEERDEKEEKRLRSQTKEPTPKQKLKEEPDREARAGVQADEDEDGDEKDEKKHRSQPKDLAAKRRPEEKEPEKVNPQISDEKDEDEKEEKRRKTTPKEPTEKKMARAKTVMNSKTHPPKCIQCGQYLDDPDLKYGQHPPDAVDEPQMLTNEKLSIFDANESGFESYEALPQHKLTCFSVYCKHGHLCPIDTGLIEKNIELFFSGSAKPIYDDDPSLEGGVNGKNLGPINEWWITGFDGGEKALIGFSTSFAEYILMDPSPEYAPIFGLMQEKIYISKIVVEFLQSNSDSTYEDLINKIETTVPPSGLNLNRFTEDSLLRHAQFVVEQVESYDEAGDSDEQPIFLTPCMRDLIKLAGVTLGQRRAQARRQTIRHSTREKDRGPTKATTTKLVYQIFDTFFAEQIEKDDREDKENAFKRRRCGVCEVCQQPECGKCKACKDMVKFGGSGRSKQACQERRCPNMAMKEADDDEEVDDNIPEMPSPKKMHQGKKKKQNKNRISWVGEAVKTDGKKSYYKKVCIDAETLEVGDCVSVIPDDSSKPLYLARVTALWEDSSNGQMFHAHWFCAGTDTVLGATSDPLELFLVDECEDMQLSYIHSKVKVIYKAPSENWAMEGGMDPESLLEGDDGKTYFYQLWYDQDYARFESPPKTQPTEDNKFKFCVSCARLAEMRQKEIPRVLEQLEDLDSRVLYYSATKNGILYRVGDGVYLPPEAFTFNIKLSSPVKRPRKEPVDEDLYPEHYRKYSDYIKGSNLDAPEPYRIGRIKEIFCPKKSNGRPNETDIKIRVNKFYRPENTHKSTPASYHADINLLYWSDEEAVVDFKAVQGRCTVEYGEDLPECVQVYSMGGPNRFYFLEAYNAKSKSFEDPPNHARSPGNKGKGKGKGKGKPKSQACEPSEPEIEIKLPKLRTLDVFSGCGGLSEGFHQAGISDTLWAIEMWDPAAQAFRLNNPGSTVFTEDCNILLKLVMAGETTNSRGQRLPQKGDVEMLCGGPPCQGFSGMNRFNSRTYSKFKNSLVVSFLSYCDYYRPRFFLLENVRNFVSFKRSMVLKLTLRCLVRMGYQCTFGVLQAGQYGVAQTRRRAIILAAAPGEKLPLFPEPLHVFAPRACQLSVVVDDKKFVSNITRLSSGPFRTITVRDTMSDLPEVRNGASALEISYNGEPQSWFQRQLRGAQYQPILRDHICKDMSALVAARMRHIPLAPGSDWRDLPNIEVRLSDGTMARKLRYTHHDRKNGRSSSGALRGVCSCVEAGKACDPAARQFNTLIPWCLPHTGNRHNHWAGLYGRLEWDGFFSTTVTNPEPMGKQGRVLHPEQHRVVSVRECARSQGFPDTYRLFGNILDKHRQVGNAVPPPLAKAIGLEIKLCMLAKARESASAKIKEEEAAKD

In the case of `Nc1ncn([C@@H]2O[C@H](CO)[C@@H](O)[C@H]2O)c(=O)n1` [Compound 5-AZA, 5-azacytidine], the “EGFP gene expression induction (FACS)” value [1] is reported as 38.5%, the “effect on HCT116 proliferation (MTT)” value (HCT116 cells) is reported as “negligible effect” and the “effect on DKO HCT116 proliferation (MTT)” value [2] is reported as “weak effect”. The “E-cadherin mRNA expression, HCT116” value [3] was “able to induce E-cadherin expression”, the “E-cadherin mRNA expression, PC-3” value [4] was “able to induce E-cadherin expression” and the “MMP2 mRNA expression, HCT116” value [5] was “increased MMP2 level”. For the same compound, the “MMP2 mRNA expression, PC-3” value (MMP2 mRNA in PC-3 cells) was “increased MMP2 level”.
Work on `O=C(O)C(Cc1c[nH]c2ccccc12)N1C(=O)c2ccccc2C1=O` (stereo not drawn) [RG-108, reference compound] yielded an EC50 (human DNMT1) of 390 ± 50 µM and an EC50 (human C-terminal DNMT3A) of over 500 µM.
